{"source": "patent US8957017B2", "about": "“Dipeptoid prodrugs and their use” (Bayer Intellectual Property GmbH, priority 2007, dated 2015)", "key": {"[1]": {"system": "heart rate of anesthetized rats", "assay": "Influence on the heart rate of anesthetized rats", "assay_type": "in vivo", "details": "maximum decrease in the first 30 min after i.v. bolus of 100 μg/kg of (A) or equivalent dosages; anesthetized male Wistar rats", "method": "f) Determination of the Influence on the Heart Rate of Anesthetized Rats:\nMale Wistar rats with a body weight above 250 g are employed. In the night before the experiment, the animals receive no feed but still have free access to drinking water. Preparation and investigations are carried out under Trapanal® anesthesia (100 mg/kg i.p.). Injection and infusion take place through a catheter in the jugular vein, and the blood pressure is recorded via a catheter in the femoral artery (transducer: Braun, Melsungen). After the preparation, the animals are connected to a continuous infusion of physiological saline solution to compensate fluid losses. Test substance or placebo solution are administered as bolus after an equilibration time of about 1 h. Heart rate and arterial blood pressure are recorded during the equilibration and over a period of at least 30 min after the bolus injection with the aid of a digital evaluation program.\nTable 4 lists the maximum heart rate decrease in the first 30 min after an i.v. bolus of 100 μg/kg of the active substance (A) or of equivalent dosages of representative exemplary embodiments: […]"}, "[2]": {"assay": "Determination of the solubility in 5% strength aqueous dextrose solution", "assay_type": "physicochemical", "details": "saline or isotonic, thermodynamic from solid; for solubility thermodynamic at 24 h: room temperature", "method": "a) Determination of the Solubility:\nThe test substance is suspended in 5% strength aqueous dextrose solution. This suspension is shaken at room temperature for 24 h. After ultracentrifugation at 224 000 g for 30 min, the supernatant is diluted with DMSO and analysed by HPLC. A two-point calibration plot of the test compound in DMSO is used for quantification.\nAgilent 1100 with DAD (G1315A), quat. Pump (G1311A), autosampler CTC HTS PAL, degasser (G1322A) and column thermostat (G1316A); column: Phenomenex Gemini C18, 5 μm, 50 mm×2 mm; temperature: 40° C.; eluent A: water/phosphoric acid pH 2, eluent B: acetonitrile; flow rate: 0.7 ml/min; gradient: 0-0.5 min 85% A, 15% B; ramp 0.5-3 min 10% A, 90% B; 3-3.5 min 10% A, 90% B; ramp 3.5-4 min 85% A, 15% B; 4-5 min 85% A, 15% B.\nAgilent 1100 with DAD (G1315A), quat. pump (G1311A), autosampler CTC HTS PAL, degasser (G1322A) and column thermostat (G1316A); column: VDSoptilab Kromasil 100 C18, 3.5 μm, 60 mm×2.1 mm; temperature: 30° C.; eluent A: water+5 ml of perchloric acid/liter, eluent B: acetonitrile; flow rate: 0.75 ml/min; gradient: 0-0.5 min 98% A, 2% B; ramp 0.5-4.5 min 10% A, 90% B; 4.5-6 min 10% A, 90% B; ramp 6.5-6.7 min 98% A, 2% B; 6.7-7.5 min 98% A, 2% B."}, "[3]": {"assay": "Stability in buffer at various pH values", "assay_type": "physicochemical", "method": "b) Stability in Buffer at Various pH Values:\n0.3 mg of the test substance is weighed into a 2 ml HPLC vial and 0.5 ml of acetonitrile or acetonitrile/DMSO (9:1) is added. The substance is dissolved by putting the sample vessel in an ultrasonic bath for about 10 seconds. Then 0.5 ml of the respective buffer solution is added, and the sample is again treated in the ultrasonic bath.\npH 2: 0.03 mol of citric acid, 0.061 mol of sodium chloride and 0.0082 mol of hydrochoric acid ad 1 liter of water;\npH 4: 1 liter of Millipore water is adjusted to pH 4.0 with 1 N hydrochloric acid;\npH 5: 0.096 mol of citric acid and 0.2 mol of sodium hydroxide ad 1 liter of water;\npH 6: 0.06 mol of citric acid and 0.16 mol of sodium hydroxide ad 1 liter of water;\npH 7.4: 90.0 g of sodium chloride, 13.61 g of potassium dihydrogen phosphate and 83.35 g of 1 N sodium hydroxide solution are made up to 1 liter with water; this solution is then further diluted 1:10 with Millipore water.\npH 8: 0.013 mol of borax and 0.021 mol of hydrochloric acid ad 1 liter of water.\n5 μl portions of the test solution are analyzed by HPLC for their content of unchanged test substance, and of parent substance (A) produced, every hour over a period of 24 hours at 37° C. The percentage areas of the appropriate peaks are used for quantification.\nThe ratios of the peak areas (F) at the respective time points in relation to the peak areas at the starting time are shown in Table 2 for representative exemplary embodiments: […]"}}, "note": "Structures can show the parent of a compound that is named as a salt.", "data": [{"smiles": "CC(C)[C@H](NC(=O)[C@@H](N)CCCCN)C(=O)OCCOc1ccc(-c2c(C#N)c(N)nc(SCc3csc(-c4ccc(Cl)cc4)n3)c2C#N)cc1", "note": "[Example 1, 2-{4-[2-Amino-6-({[2-(4-chlorophenyl)-1,3-thiazol-4-yl]methyl}thio)-3,5-dicyanopyridin-4-yl]-phenoxy}ethyl L-lysyl-L-valinate dihydrochloride]", "values": [{"measurement": "Heart rate decrease", "setting": "[1]", "result": 10, "unit": "%"}, {"measurement": "solubility thermodynamic at 24 h", "setting": "[2]", "result": "> 500", "unit": "µg/mL"}, {"measurement": "% test substance after 4 h [F(t = 4 h) × 100/F(t = 0 h)]", "setting": "[3]; pH 4, 37° C.", "result": 100, "unit": "%"}, {"measurement": "% test substance after 24 h [F(t = 24 h) × 100/F(t = 0 h)]", "setting": "[3]; pH 4, 37° C.", "result": 100, "unit": "%"}, {"measurement": "% test substance after 4 h [F(t = 4 h) × 100/F(t = 0 h)]", "setting": "[3]; pH 6, 37° C.", "result": 100, "unit": "%"}, {"measurement": "% test substance after 24 h [F(t = 24 h) × 100/F(t = 0 h)]", "setting": "[3]; pH 6, 37° C.", "result": 100, "unit": "%"}, {"measurement": "% test substance after 4 h [F(t = 4 h) × 100/F(t = 0 h)]", "setting": "[3]; pH 7.4, 37° C.", "result": 99, "unit": "%"}, {"measurement": "% test substance after 24 h [F(t = 24 h) × 100/F(t = 0 h)]", "setting": "[3]; pH 7.4, 37° C.", "result": 96, "unit": "%"}, {"measurement": "% test substance after 4 h [F(t = 4 h) × 100/F(t = 0 h)]", "setting": "[3]; pH 8, 37° C.", "result": 99, "unit": "%"}, {"measurement": "% test substance after 24 h [F(t = 24 h) × 100/F(t = 0 h)]", "setting": "[3]; pH 8, 37° C.", "result": 90, "unit": "%"}]}, {"smiles": "CC(C)C[C@H](NC(=O)[C@@H](N)CCCCN)C(=O)OCCOc1ccc(-c2c(C#N)c(N)nc(SCc3csc(-c4ccc(Cl)cc4)n3)c2C#N)cc1", "note": "[Example 11, 2-{4-[2-Amino-6-({[2-(4-chlorophenyl)-1,3-thiazol-4-yl]methyl}sulfanyl)-3,5-dicyanopyridin-4-yl]-phenoxy}ethyl L-lysyl-L-leucinate dihydrochloride]", "values": [{"measurement": "solubility thermodynamic at 24 h", "setting": "[2]", "result": "> 500", "unit": "µg/mL"}, {"measurement": "% test substance after 4 h [F(t = 4 h) × 100/F(t = 0 h)]", "setting": "[3]; pH 4, 37° C.", "result": 100, "unit": "%"}, {"measurement": "% test substance after 24 h [F(t = 24 h) × 100/F(t = 0 h)]", "setting": "[3]; pH 4, 37° C.", "result": 100, "unit": "%"}, {"measurement": "% test substance after 4 h [F(t = 4 h) × 100/F(t = 0 h)]", "setting": "[3]; pH 7.4, 37° C.", "result": 90, "unit": "%"}, {"measurement": "% test substance after 24 h [F(t = 24 h) × 100/F(t = 0 h)]", "setting": "[3]; pH 7.4, 37° C.", "result": 55, "unit": "%"}]}, {"smiles": "C[C@@H](NC(=O)[C@@H](N)CCCCN)C(=O)OCCOc1ccc(-c2c(C#N)c(N)nc(SCc3csc(-c4ccc(Cl)cc4)n3)c2C#N)cc1", "note": "[Example 12, 2-{4-[2-Amino-6-({[2-(4-chlorophenyl)-1,3-thiazol-4-yl]methyl}sulfanyl)-3,5-dicyanopyridin-4-yl]-phenoxy}ethyl L-lysyl-D-alaninate dihydrochloride]", "values": [{"measurement": "solubility thermodynamic at 24 h", "setting": "[2]", "result": "> 500", "unit": "µg/mL"}, {"measurement": "% test substance after 4 h [F(t = 4 h) × 100/F(t = 0 h)]", "setting": "[3]; pH 4, 37° C.", "result": 99, "unit": "%"}, {"measurement": "% test substance after 24 h [F(t = 24 h) × 100/F(t = 0 h)]", "setting": "[3]; pH 4, 37° C.", "result": 98, "unit": "%"}, {"measurement": "% test substance after 4 h [F(t = 4 h) × 100/F(t = 0 h)]", "setting": "[3]; pH 7.4, 37° C.", "result": 49, "unit": "%"}, {"measurement": "% test substance after 24 h [F(t = 24 h) × 100/F(t = 0 h)]", "setting": "[3]; pH 7.4, 37° C.", "result": 2, "unit": "%"}]}, {"smiles": "N#Cc1c(N)nc(SCc2csc(-c3ccc(Cl)cc3)n2)c(C#N)c1-c1ccc(OCCOC(=O)CC[C@@H](N)C(=O)NCCN)cc1", "note": "[Example 13, 2-{4-[2-Amino-6-({[2-(4-chlorophenyl)-1,3-thiazol-4-yl]methyl}sulfanyl)-3,5-dicyanopyridin-4-yl]-phenoxy}ethyl N-(2-aminoethyl)-D-α-glutaminate dihydrochloride]", "values": [{"measurement": "solubility thermodynamic at 24 h", "setting": "[2]", "result": "> 500", "unit": "µg/mL"}, {"measurement": "% test substance after 4 h [F(t = 4 h) × 100/F(t = 0 h)]", "setting": "[3]; pH 4, 37° C.", "result": 100, "unit": "%"}, {"measurement": "% test substance after 24 h [F(t = 24 h) × 100/F(t = 0 h)]", "setting": "[3]; pH 4, 37° C.", "result": 99, "unit": "%"}, {"measurement": "% test substance after 4 h [F(t = 4 h) × 100/F(t = 0 h)]", "setting": "[3]; pH 7.4, 37° C.", "result": 24, "unit": "%"}, {"measurement": "% test substance after 24 h [F(t = 24 h) × 100/F(t = 0 h)]", "setting": "[3]; pH 7.4, 37° C.", "result": 0, "unit": "%"}]}, {"smiles": "C[C@H](NC(=O)[C@@H](N)CCCNC(=N)N)C(=O)OCCOc1ccc(-c2c(C#N)c(N)nc(SCc3csc(-c4ccc(Cl)cc4)n3)c2C#N)cc1", "note": "[Example 14, 2-{4-[2-Amino-6-({[2-(4-chlorophenyl)-1,3-thiazol-4-yl]methyl}sulfanyl)-3,5-dicyanopyridin-4-yl]-phenoxy}ethyl L-arginyl-L-alaninate dihydrochloride]", "values": [{"measurement": "solubility thermodynamic at 24 h", "setting": "[2]", "result": "> 500", "unit": "µg/mL"}, {"measurement": "% test substance after 4 h [F(t = 4 h) × 100/F(t = 0 h)]", "setting": "[3]; pH 4, 37° C.", "result": 100, "unit": "%"}, {"measurement": "% test substance after 24 h [F(t = 24 h) × 100/F(t = 0 h)]", "setting": "[3]; pH 4, 37° C.", "result": 100, "unit": "%"}, {"measurement": "% test substance after 4 h [F(t = 4 h) × 100/F(t = 0 h)]", "setting": "[3]; pH 7.4, 37° C.", "result": 68, "unit": "%"}, {"measurement": "% test substance after 24 h [F(t = 24 h) × 100/F(t = 0 h)]", "setting": "[3]; pH 7.4, 37° C.", "result": 8, "unit": "%"}]}, {"smiles": "N#Cc1c(N)nc(SCc2csc(-c3ccc(Cl)cc3)n2)c(C#N)c1-c1ccc(OCCO)cc1", "note": "[compound (A), 2-amino-6-({[2-(4-chlorophenyl)-1,3-thiazol-4-yl]methyl}thio)-4-[4-(2-hydroxy-ethoxy)phenyl]pyridine-3,5-dicarbonitrile, reference compound]", "values": [{"measurement": "Heart rate decrease", "setting": "[1]", "result": 24, "unit": "%"}, {"measurement": "solubility at 24 h", "setting": "[2]", "result": "< 0.1", "unit": "µg/mL"}]}]}
